Reference: patent US20250114313A1, “OLIGO-BENZAMIDE ANALOGS AND THEIR USE IN CANCER TREATMENT” (BOARD OF REGENTS, THE UNIVERSITY OF TEXAS SYSTEM, priority 2022, published 2025)

Legend:
ERα-positive cell lines = assay: WST assay, ERα-positive cell lines; format: cell-based; settings: Homo sapiens, read-out: anti-proliferative IC50, WST
Procedure: Cell viability assays: Cells were seeded in 96-well plates (2×10^3 cells/well) one day before the treatment. Cells were treated with varying concentrations of ERX-41 or ERX-11 analogs for 3-6 days. Then effects of ERX-41 or ERX-11 analogs on cell viability were measured in triplicate or sextuplicate with multiple biological replicates using the WST-1 (Promega), MTT as previously described^33 or CellTiter-Glo 2.0 (Promega) assays.

TNBC cells (MDA-MB-231) = assay: Live cell imaging with SYTOX Green, cell death in TNBC cells; format: cell-based, Human; settings: within 30 hours of treatment; control <1%
Procedure: Live cell imaging: Live cell images were acquired by Lionheart FX automated microscope (BioTek). Cells were plated one day before the experiment. For cell death assay, 0.2 μM SYTOX Green was added into the plate 15 min before the experiment.

[1] = tested on: parental SUM-159 xenografts; assay: Parental SUM-159 xenografts; format: in vivo, SCID mice
Procedure: Knockout studies: For xenograft knockout tumor models, 1.8×10^6SUM159 parental, or 1.8×10^6SUM159-LIPA KO cells were harvested with 1% trypsin-EDTA, washed and resuspended in sterile PBS. Cells were initially implanted into the mammary fat pads of six-week-old female C.B-17 (SCID) mice purchased from Envigo (Indianapolis, IN, USA). Mice were monitored twice weekly for tumor growth measured by Vernier calipers where tumor volume was calculated by the formula (length×width^2)/2. Tumors were dissected into 2 mm cubes when they reached 800 mm^3 in size and subsequently implanted into the mammary fat pad of twelve SCID female mice. Once tumor fragments reached 150 mm^3 in size, mice were randomly divided into vehicle group (n=6, control, 0.3% Hydroxy cellulose, i.p.) and treatment group (n=6, ERX-41, 10 mg/kg/day/i.p.). Institutional guidelines were followed to determine experimental end points.

primary TNBC PDEs = assay: TNBC patient-derived explant (PDE) cultures ex vivo; format: cell-based, human
Description: TNBC patient-derived explant (PDE) studies: For PDE studies excised tissue samples were processed and cultured ex vivo as previously described. De-identified patient tumors were obtained from the UTSW Tissue Repository after institutional review board approval (STU-032011-187). Inclusion criteria included women with prior histologic confirmation of TNBC who were undergoing surgical extirpation or biopsy of their primary tumor. Prior treatment with chemotherapy and/or radiation was allowed. Exclusion criteria included concurrent or prior diagnosis of other malignancies or prior evidence of ERα+ or HER2+ breast cancer. All cases were reviewed by the UTSW Tissue Repository in advance and patients were consented for their tissue to be used for laboratory research. Only de-identified information was shared with the laboratory. None of the laboratory personnel had access to additional patient information. No attrition was noted. Briefly, fresh tumor samples were incubated on gelatin sponges in culture medium containing 10% FBS, followed by treatment with either vehicle or presence of 2.5 μM ERX-41 for 72 h. Representative tissues were fixed in 10% formalin at 4° C. overnight and subsequently processed into paraffin blocks. Sections were then processed for immunohistochemical analysis.
Immunohistochemistry: Immunohistochemical studies were performed as described previously.^7 For the immunohistochemical studies, tissue sections were blocked in background sniper (Biocare Medical, RS966L) followed by overnight incubation with primary antibodies anti-Ki-67 antibody (1:1000, GeneTex cat #GTX16667 RRID:AB_422351) (link), anti-CHOP antibody (1:2000, Sigma, Cat #HPA068416), anti-PERK (phospho T982) antibody (1:150, Abcam Cat #ab192591, RRID:AB_2728666) link)), anti-phospho-eIF2α (Ser51) (1:50, Cell signaling, cs3398) and subsequent secondary antibody incubation for 60 min at room temperature. Immunoreactivity was visualized by using the DAB substrate and counterstained with hematoxylin (Vector Lab, Inc.). […]

[2] = tested on: ERα+ breast PDX (WHIM-20); assay: ERα+ breast PDX WHIM-20; format: in vivo, NSG mice; settings: 10 mg/kg daily
Procedure: Animal Studies: All animal experiments were performed using UTHSA and UTSW IACUC approved protocols. For cell based xenograft tumor assays, TNBC cells (2×10^5-2×10^6) were mixed with an equal volume of matrigel and implanted in the mammary fat pads of 6-week-old female athymic nude mice as described^33. BALB/c mice were used for D2A1 syngeneic model. Once tumors reached measurable size, mice were divided into control (vehicle) and ERX-41 (10 mg/kg/oral) treatment groups. Mice bearing TNBC PDX tumors were purchased from Jackson laboratory (TM00089; TM00096; TM00098). TNBC PDX line UTPDX0001 establishment was earlier described^38. WHIM-20 ER+PDX model was purchased from Horizon Labs. OCa-PDX-38 was received from UTHSA ObGyn tissue procurement core. When tumors reached ˜750 mm^3 they were dissected into 2 mm^3 pieces and implanted into the mammary fat pads of 6 weeks old female SCID or NSG mice. When the tumor volume reached ˜200 mm^3, mice were randomized for treatment. The mice were monitored daily for adverse toxic effects and tumor volume was measured every 3-4 days using calipers. For establishing ES2 tumors, ES2/GFP/LUC cells were injected i.p. and tumors were measured twice a week using Xenogen in vivo imaging system. […] The mice were monitored daily for adverse toxic effects. […] The sections were scored by two independent evaluators blinded to the patient's clinical status.

TNBC cells = assay: Ca^2+ flux in TNBC cells; format: cell-based; settings: data not shown
TNBC = assay: ER stress, cell death and lysosomes in TNBC (discussion, no method); format: cell-based

Q: Which results are given for CC(C)COc1cc(C(=O)Nc2ccc(C(=O)N[C@H]3CC[C@H](C)CC3)cc2OCC(C)C)ccc1NC(=O)c1ccc([N+](=O)[O-])c(OCCO)c1 [ERX-41]?
A: IC50 (ERα-positive cell lines): 50 to 1000 nM; cells dead (TNBC cells (MDA-MB-231)): > 90%; Ki67 staining, parental xenografts ([1]; at sacrifice): decrease in Ki67 staining; response of parental xenografts ([1]; i.p., 10 mg/kg/day): responded significantly; UPR pathway markers in explants (primary TNBC PDEs; IHC, within 24 h after treatment): enhanced pPERK, CHOP (protein product of DDIT3 gene) and peIF2a staining; apoptosis (cleaved caspase 3 staining) of explants (primary TNBC PDEs; ex vivo): increased apoptosis; proliferation (Ki67 staining) of explants (primary TNBC PDEs; ex vivo): decreased proliferation; activity against WHIM-20 PDX [2]: has activity against; Ca^2+ flux within TNBC cells (TNBC cells): not able to induce Ca^2+ flux; changes in lysosomes (TNBC): no significant changes in lysosomes
